From ChEMBL document CHEMBL1140480, “Amino(methyl) pyrrolidines as novel scaffolds for factor Xa inhibitors” (Bioorg Med Chem Lett, 2007)
Several values for one entry are separate records, joined by “and”; a condition that tells them apart may be missing. Identical values can stand only once.

Key:
Plasma = assay: Anticoagulant activity in human plasma assessed as concentration required to double prothrombin time; assay type: functional
Coagulation factor X = Coagulation factor X (Homo sapiens, UniProt P00742); assay: Inhibition of F10a
Cytochrome P450 3A4 = Cytochrome P450 3A4 (Homo sapiens, UniProt P08684); assay: Inhibition of CYP3A4; assay type: ADME
[1] = Permeability from apical to basolateral side of the Caco-2 cell membrane at pH 6.5; assay type: ADME, cell-based; conditions: human, Caco-2, pH 6.5; read-out: permeability
Cytochrome P450 2D6 = Cytochrome P450 2D6 (Homo sapiens, UniProt P10635); assay: Inhibition of CYP2D6; assay type: ADME
Cytochrome P450 2C9 = Cytochrome P450 2C9 (Homo sapiens, UniProt P11712); assay: Inhibition of CYP2C9; assay type: ADME
[2] = molecular target: T1, Coagulation factor VII (Homo sapiens) (UniProt P08709); assay: Inhibition of F7a
T1 sequence (whole entry): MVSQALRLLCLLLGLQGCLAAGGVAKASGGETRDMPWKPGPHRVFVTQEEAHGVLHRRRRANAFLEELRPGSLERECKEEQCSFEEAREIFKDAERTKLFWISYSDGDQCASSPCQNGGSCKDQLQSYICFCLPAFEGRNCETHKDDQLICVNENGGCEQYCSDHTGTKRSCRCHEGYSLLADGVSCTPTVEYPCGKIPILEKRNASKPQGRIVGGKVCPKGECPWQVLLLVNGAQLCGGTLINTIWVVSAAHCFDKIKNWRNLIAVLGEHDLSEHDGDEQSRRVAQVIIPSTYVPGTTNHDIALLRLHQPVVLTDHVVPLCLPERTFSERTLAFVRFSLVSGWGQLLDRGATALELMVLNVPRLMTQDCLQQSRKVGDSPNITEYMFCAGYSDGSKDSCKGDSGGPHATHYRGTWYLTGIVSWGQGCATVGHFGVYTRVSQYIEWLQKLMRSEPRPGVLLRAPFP

[3] = molecular target: Prothrombin (Homo sapiens) (UniProt P00734); assay: Inhibition of thrombin
Trypsin (Homo sapiens) = Trypsin (Homo sapiens) (UniProt P07477+P07478+P35030); assay: Inhibition of trypsin; assay type: protein assay
[4] = molecular target: Coagulation factor IX (Homo sapiens) (UniProt P00740); assay: Inhibition of F9a
Cytochrome P450 2C19 = Cytochrome P450 2C19 (Homo sapiens, UniProt P33261); assay: Inhibition of CYP2C19; assay type: ADME
[5] = molecular target: Plasma kallikrein (Homo sapiens) (UniProt P03952); assay: Inhibition of plasma kallikrein; assay type: cell-free
Cytochrome P450 1A2 = molecular target: T2, Cytochrome P450 1A2 (Homo sapiens, UniProt P05177); assay: Inhibition of CYP1A2; assay type: ADME
T2 sequence (P05177 whole entry): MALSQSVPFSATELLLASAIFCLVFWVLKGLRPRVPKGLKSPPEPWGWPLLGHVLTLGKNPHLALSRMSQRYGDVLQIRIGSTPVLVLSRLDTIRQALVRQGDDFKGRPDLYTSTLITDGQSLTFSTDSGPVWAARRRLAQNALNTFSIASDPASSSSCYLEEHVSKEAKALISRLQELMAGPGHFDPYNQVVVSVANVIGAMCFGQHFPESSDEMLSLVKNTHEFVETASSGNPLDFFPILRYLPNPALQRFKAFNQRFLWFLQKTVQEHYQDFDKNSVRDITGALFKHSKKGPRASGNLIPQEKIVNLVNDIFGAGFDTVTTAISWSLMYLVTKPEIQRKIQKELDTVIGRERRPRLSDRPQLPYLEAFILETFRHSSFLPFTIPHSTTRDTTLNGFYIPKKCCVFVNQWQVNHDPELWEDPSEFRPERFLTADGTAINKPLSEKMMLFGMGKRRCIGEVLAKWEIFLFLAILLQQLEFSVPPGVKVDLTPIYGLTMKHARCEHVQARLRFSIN

Coagulation factor X, sequence (P00742 41-179 limits assumed): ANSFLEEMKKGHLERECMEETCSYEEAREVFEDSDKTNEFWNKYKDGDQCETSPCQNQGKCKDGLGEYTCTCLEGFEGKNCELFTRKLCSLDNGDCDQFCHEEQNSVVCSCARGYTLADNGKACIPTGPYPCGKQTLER
Coagulation factor X, sequence (P00742 235-488 limits assumed): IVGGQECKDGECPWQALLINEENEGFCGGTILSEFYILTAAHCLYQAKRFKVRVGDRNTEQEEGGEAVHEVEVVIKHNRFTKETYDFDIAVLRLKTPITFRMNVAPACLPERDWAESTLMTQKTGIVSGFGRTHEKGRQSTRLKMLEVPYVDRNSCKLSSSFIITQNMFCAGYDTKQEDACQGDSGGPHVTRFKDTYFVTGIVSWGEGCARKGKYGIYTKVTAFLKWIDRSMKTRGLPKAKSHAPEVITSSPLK
Cytochrome P450 3A4, sequence (P08684 whole entry): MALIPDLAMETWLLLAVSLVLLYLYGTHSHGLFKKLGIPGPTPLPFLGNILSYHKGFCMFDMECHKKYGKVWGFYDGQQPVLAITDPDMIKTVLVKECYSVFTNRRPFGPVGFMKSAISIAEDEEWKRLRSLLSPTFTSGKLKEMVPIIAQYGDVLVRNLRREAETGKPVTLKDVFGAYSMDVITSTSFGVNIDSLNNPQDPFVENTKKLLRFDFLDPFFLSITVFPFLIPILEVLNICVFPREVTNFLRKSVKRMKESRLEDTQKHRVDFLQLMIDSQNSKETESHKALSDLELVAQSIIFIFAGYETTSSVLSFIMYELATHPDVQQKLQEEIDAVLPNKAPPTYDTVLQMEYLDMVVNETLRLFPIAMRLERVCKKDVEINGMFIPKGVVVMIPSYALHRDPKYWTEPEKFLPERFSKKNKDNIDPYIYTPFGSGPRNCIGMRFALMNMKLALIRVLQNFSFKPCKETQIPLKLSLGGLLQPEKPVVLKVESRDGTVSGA
Cytochrome P450 2D6, sequence (P10635 whole entry): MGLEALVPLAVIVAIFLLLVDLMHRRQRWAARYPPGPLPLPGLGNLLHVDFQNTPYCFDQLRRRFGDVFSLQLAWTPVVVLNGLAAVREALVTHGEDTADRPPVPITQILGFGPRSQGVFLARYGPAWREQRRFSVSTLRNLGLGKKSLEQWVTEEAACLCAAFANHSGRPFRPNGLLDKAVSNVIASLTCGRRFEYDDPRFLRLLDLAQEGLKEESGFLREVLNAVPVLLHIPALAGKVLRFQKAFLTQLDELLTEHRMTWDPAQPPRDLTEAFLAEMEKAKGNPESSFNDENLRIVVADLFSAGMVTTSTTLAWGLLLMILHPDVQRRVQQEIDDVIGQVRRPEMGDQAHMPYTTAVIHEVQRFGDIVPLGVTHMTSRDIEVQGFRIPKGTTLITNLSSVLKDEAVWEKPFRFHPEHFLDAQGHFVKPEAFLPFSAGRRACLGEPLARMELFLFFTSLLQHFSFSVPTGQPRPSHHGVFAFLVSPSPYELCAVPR
Cytochrome P450 2C9, sequence (P11712 whole entry): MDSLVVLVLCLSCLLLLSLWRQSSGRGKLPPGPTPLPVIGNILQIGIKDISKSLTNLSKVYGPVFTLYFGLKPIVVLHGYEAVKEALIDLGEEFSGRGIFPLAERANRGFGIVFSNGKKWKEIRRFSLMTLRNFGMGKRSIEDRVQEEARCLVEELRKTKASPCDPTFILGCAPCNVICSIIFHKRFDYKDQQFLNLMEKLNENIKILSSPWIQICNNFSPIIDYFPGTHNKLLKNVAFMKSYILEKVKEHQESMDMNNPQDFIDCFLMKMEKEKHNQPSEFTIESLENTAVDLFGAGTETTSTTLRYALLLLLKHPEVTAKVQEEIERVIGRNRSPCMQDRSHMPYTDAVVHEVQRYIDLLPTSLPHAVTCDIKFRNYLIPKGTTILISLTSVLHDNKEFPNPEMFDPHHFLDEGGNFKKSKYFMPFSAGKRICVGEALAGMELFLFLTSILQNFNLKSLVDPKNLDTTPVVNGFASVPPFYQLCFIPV
Plasma kallikrein (Homo sapiens), sequence (P03952 20-390 limits assumed): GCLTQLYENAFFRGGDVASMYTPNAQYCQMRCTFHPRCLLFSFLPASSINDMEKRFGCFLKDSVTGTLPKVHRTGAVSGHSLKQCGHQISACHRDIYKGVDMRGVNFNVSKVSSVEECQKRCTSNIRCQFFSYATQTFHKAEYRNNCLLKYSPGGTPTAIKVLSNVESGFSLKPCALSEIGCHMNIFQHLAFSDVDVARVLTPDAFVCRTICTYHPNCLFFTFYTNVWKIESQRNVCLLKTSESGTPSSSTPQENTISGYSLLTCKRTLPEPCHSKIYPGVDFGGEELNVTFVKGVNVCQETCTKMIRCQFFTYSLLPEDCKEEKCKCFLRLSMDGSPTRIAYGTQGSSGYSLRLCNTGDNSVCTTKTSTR
Plasma kallikrein (Homo sapiens), sequence (P03952 391-638 limits assumed): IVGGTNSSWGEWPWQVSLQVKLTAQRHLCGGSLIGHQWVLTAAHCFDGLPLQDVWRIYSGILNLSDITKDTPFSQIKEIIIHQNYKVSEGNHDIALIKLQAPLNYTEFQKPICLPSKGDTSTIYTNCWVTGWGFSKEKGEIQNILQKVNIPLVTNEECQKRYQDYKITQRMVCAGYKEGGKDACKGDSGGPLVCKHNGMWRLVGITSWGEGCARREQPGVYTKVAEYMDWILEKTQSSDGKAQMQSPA
Coagulation factor IX (Homo sapiens), sequence (P00740 47-191 limits assumed): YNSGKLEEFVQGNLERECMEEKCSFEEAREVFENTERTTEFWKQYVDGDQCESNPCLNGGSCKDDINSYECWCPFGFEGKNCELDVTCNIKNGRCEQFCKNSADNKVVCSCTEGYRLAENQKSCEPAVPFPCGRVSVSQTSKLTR
Coagulation factor IX (Homo sapiens), sequence (P00740 227-461 limits assumed): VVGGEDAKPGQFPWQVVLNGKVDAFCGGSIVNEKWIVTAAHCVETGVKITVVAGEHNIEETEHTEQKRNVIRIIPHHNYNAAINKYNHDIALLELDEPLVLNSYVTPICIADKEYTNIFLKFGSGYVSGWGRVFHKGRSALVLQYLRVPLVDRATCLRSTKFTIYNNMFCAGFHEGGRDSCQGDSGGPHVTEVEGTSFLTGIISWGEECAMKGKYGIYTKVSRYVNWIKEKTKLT
Cytochrome P450 2C19, sequence (P33261 whole entry): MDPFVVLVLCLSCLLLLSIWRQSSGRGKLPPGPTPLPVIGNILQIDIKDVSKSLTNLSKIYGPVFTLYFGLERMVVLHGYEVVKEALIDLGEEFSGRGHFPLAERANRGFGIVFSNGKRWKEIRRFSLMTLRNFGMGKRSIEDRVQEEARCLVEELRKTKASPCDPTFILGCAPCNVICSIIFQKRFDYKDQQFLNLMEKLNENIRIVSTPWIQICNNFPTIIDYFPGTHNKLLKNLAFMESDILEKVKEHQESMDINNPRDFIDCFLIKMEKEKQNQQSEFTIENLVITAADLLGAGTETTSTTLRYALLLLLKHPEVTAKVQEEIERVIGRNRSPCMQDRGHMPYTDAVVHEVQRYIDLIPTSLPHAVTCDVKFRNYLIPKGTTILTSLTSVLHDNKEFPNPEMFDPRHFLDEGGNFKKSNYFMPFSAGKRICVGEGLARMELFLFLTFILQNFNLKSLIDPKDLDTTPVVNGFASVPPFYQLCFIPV

| IC50 (Coagulation factor X) | SMILES | Activity (Plasma) | also measured |
| --- | --- | --- | --- |
| – | O=C(C1CCN(c2ccncc2)CC1)N1CC[C@@H](CNS(=O)(=O)/C=C/c2ccc(Cl)s2)C1 | 1.7 µM | – |
| 436 nM | O=C(C(=O)N1CCC[C@H]1CN1CCCC1)N1CC[C@@H](CNS(=O)(=O)/C=C/c2ccc(Cl)s2)C1 | – | – |
| 130 nM | O=C(N1CCCC1)N1CC[C@H](CNS(=O)(=O)c2ccc(-c3ccc(Cl)s3)s2)C1 | 130 µM | – |
| 61 nM | Cc1nccc(N2CCC(C(=O)N3CC[C@@H](CNS(=O)(=O)c4ccc(-c5ccc(Cl)s5)s4)C3)CC2)n1 | 50 µM | – |
| 86 nM | O=C(C1CCN(c2ccncc2)CC1)N1CCC(CNS(=O)(=O)/C=C/c2ccc(Br)s2)C1 (racemic) | 8.7 µM | – |
| 1100 nM | O=C(C1CCN(c2ccncc2)CC1)N1CCC(CNS(=O)(=O)c2ccc3ccccc3c2)C1 (racemic) | – | – |
| 230 nM | Cc1nccc(N2CCC(C(=O)N3CC[C@@H](CNS(=O)(=O)/C=C/c4ccc(Cl)s4)C3)CC2)n1 | 28 µM | – |
| 40 nM | O=C(N1CC[C@H](CNS(=O)(=O)c2ccc(-c3ccc(Cl)s3)s2)C1)N1CCC[C@H]1CN1CCCC1 | 13 µM | – |
| 1300 nM | O=C(c1ccc(-n2ccnc2)cc1)N1CC[C@H](CNS(=O)(=O)/C=C/c2ccc(Cl)s2)C1 | – | – |
| 255 nM | O=C(C1CCN(c2ccncc2)CC1)N1CCC(CNS(=O)(=O)c2cc3ccc(Cl)cc3s2)C1 (racemic) | 45 µM | – |
| 1900 nM | NS(=O)(=O)c1ccccc1-c1ccc(C(=O)N2CC[C@@H](CNS(=O)(=O)/C=C/c3ccc(Cl)s3)C2)cc1 | – | – |
| 247 nM | O=C(C1CCN(c2ccncc2)CC1)N1CCC(CNS(=O)(=O)c2ccc3cc(Cl)ccc3c2)C1 (racemic) | 40 µM | – |
| 18 nM | O=C(C1CCN(c2ccncc2)CC1)N1CC[C@@H](CNS(=O)(=O)c2ccc(-c3ccc(Cl)s3)s2)C1 | 6.8 µM | IC50 (Cytochrome P450 3A4): 2330 nM and 1000 nM; Papp A→B [1]: < 1.5 ×10⁻⁶ cm/s; IC50 (Cytochrome P450 2D6): 7970 nM; IC50 (Cytochrome P450 2C9): 1470 nM; Activity [2]: > 30 µM; Activity [3]: > 30 µM; Activity (Trypsin (Homo sapiens)): > 30 µM; Activity [4]: > 30 µM; IC50 (Cytochrome P450 2C19): 14100 nM; Activity [5]: > 30 µM; IC50 (Cytochrome P450 1A2): > 20000 nM |
| 4300 nM | O=C(C1CCN(c2ccncc2)CC1)N1CCC(CNS(=O)(=O)/C=C/c2cccc(Cl)c2)C1 (racemic) | – | – |
| – | O=C(C1CCN(c2ccncc2)CC1)N1CC[C@H](CNS(=O)(=O)/C=C/c2ccc(Cl)s2)C1 | 13 µM | – |
| 718 nM | Cc1nccc(N2CCC(C(=O)N3CC[C@H](CNS(=O)(=O)/C=C/c4ccc(Cl)s4)C3)CC2)n1 | – | – |
| 70 nM | O=C(C(=O)N1CCC[C@H]1CN1CCCC1)N1CC[C@H](CNS(=O)(=O)/C=C/c2ccc(Cl)s2)C1 | 8 µM | – |
| 493 nM | O=C(C1CCN(c2ccncc2)CC1)N1CCC(CNS(=O)(=O)/C=C/c2ccc(Cl)cc2)C1 (racemic) | 32 µM | – |
| 22 nM | O=C(C1CCN(c2ccncc2)CC1)N1CC[C@@H](CNS(=O)(=O)/C=C/c2ccc(Br)s2)C1 | 5 µM | – |
